In patent US9156796B2, “Benzoimidazole-carboxylic acid amide derivatives as APJ receptor modulators” (SANOFI, priority 2013, dated 2015):

These compounds were tested against T1, human apelin receptor (Homo sapiens, UniProt P35414) (assay: Determination of agonism on the human apelin receptor by a calcium fluorescence assay (FLIPR)). Details: HEK293 cells stably transfected with human apelin receptor and Giaq protein, Fluo-4 calcium fluorescence, read-out: EC50 (APJ agonism).
T1 construct: expressed in transfected cells
T1 sequence (P35414 1-380): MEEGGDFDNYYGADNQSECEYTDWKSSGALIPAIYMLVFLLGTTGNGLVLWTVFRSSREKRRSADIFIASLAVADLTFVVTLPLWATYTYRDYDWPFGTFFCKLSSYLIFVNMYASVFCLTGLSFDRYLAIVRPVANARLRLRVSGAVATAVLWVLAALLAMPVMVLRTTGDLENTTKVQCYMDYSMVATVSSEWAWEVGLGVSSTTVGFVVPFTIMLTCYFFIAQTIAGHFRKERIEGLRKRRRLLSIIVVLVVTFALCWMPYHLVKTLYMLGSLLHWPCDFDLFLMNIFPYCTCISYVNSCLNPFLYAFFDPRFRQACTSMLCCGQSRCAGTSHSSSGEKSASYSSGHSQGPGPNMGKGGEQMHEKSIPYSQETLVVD
Type: cell-based
How it was run: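 Agonist EC50s come from peak intracellular calcium transients recorded by FLIPR Tetra, scaled to the 1 μM apelin-13 maximum per plate. Test system: HEK293 stably transfected with human apelin receptor plus Giaq, Fluo-4-loaded (4 μM, 1 h, 37 °C, pH 7.4 buffer with probenecid); ≥7 concentrations, triplicates.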
For `CCC(CC)n1c(Cc2cccs2)nc2cc(C(=O)N[C@H](CCC(=O)O)[C@@H](C)CC)ccc21` [Example 71, (4R,5S)-4-{[1-(1-Ethyl-propyl)-2-thiophen-2-ylmethyl-1H-benzoimidazole-5-carbonyl]-amino}-5-methyl-heptanoic acid], the EC50 was 73 nM. With `CC[C@H](C)[C@@H](CCC(=O)O)NC(=O)c1ccc2c(c1)nc(Cc1cccs1)n2[C@@H]1CCCC[C@H]1C` [Example 72, (4R,5S)-5-Methyl-4-{[1-((1R,2R)-2-methyl-cyclohexyl)-2-thiophen-2-ylmethyl-1H-benzoimidazole-5-carbonyl]-amino}-heptanoic acid] the EC50 was 47 nM. For `CCC(CC)n1c(Cc2cccs2)nc2cc(C(=O)N[C@@H](CC3CCCCC3)[C@H](O)CC(=O)O)ccc21` [Example 73, (3R,4S)-5-Cyclohexyl-4-{[1-(1-ethyl-propyl)-2-thiophen-2-ylmethyl-1H-benzoimidazole-5-carbonyl]-amino}-3-hydroxy-pentanoic acid], the EC50 was 65 nM. Compound `C[C@@H]1CCCC[C@H]1n1c(Cc2cccs2)nc2cc(C(=O)N[C@@H](CC3CCCCC3)[C@H](O)CC(=O)O)ccc21` [Example 74, (3R,4S)-5-Cyclohexyl-3-hydroxy-4-{[1-((1R,2R)-2-methyl-cyclohexyl)-2-thiophen-2-ylmethyl-1H-benzoimidazole-5-carbonyl]-amino}-pentanoic acid] has an EC50 of 140 nM. For `CCC(CC)n1c(Cc2cccs2)nc2cc(C(=O)N[C@@H](CC(C)C)[C@@H](O)CC(=O)O)ccc21` [Example 75, (3S,4S)-4-{[1-(1-Ethyl-propyl)-2-thiophen-2-ylmethyl-1H-benzoimidazole-5-carbonyl]-amino}-3-hydroxy-6-methyl-heptanoic acid], the EC50 was 66 nM. Compound `CCC(CC)n1c(Cc2cccs2)nc2cc(C(=O)N[C@@H](CC(C)C)[C@H](O)CC(=O)O)ccc21` [Example 76, (3R,4S)-4-{[1-(1-Ethyl-propyl)-2-thiophen-2-ylmethyl-1H-benzoimidazole-5-carbonyl]-amino}-3-hydroxy-6-methyl-heptanoic acid] has an EC50 of 62 nM. In the case of `CC(C)C[C@H](NC(=O)c1ccc2c(c1)nc(Cc1cccs1)n2[C@@H]1CCCC[C@H]1C)[C@H](O)CC(=O)O` [Example 77, (3R,4S)-3-Hydroxy-6-methyl-4-{[1-((1R,2R)-2-methyl-cyclohexyl)-2-thiophen-2-ylmethyl-1H-benzoimidazole-5-carbonyl]-amino}-heptanoic acid], the EC50 is reported as 53 nM. `CC(C)C[C@H](NC(=O)c1ccc2c(c1)nc(Cc1cccs1)n2[C@@H]1CCCC[C@H]1C)[C@@H](O)CC(=O)O` [Example 78, (3S,4S)-3-Hydroxy-6-methyl-4-{[1-((1R,2R)-2-methyl-cyclohexyl)-2-thiophen-2-ylmethyl-1H-benzoimidazole-5-carbonyl]-amino}-heptanoic acid] was tested, and the EC50 was 101 nM. In the case of `CCC(CC)n1c(Cc2cccs2)nc2cc(C(=O)N[C@@H](CC3CCCCC3)[C@@H](O)CC(=O)O)ccc21` [Example 79, (3S,4S)-5-Cyclohexyl-4-{[1-(1-ethyl-propyl)-2-thiophen-2-ylmethyl-1H-benzoimidazole-5-carbonyl]-amino}-3-hydroxy-pentanoic acid], the EC50 is reported as 80 nM. Work on `CCC(CC)n1c(CC2CCCO2)nc2cc(C(=O)N[C@@H](CC(C)C)C(=O)O)ccc21` (stereo partly drawn) [Example 80, (S)-2-{[1-(1-Ethyl-propyl)-2-(tetrahydro-furan-2-ylmethyl)-1H-benzoimidazole-5-carbonyl]-amino}-4-methyl-pentanoic acid] yielded an EC50 of 1670 nM. `CCC(CC)n1c(Cc2ccco2)nc2cc(C(=O)N[C@@H](CC(C)C)C(=O)O)ccc21` [Example 81, (S)-2-{[1-(1-Ethyl-propyl)-2-furan-2-ylmethyl-1H-benzoimidazole-5-carbonyl]-amino}-4-methyl-pentanoic acid] showed an EC50 of under 41 nM. `CCC(CC)n1c(Cc2ccc(Cl)s2)nc2cc(C(=O)N[C@@H](CC(C)C)C(=O)O)ccc21` [Example 82, (S)-2-{[2-(5-Chloro-thiophen-2-ylmethyl)-1-(1-ethyl-propyl)-1H-benzoimidazole-5-carbonyl]-amino}-4-methyl-pentanoic acid] showed an EC50 of 23300 nM. Compound `CC(C)C[C@H](NC(=O)c1ccc2c(c1)nc(Cc1cccs1)n2CC1CCCCC1)C(=O)O` [Example 83, (S)-2-[(1-Cyclohexylmethyl-2-thiophen-2-ylmethyl-1H-benzoimidazole-5-carbonyl)-amino]-4-methyl-pentanoic acid] has an EC50 of 18200 nM. `CCC(CC)n1c(Cc2cscn2)nc2cc(C(=O)N[C@@H](CC(C)C)C(=O)O)ccc21` [Example 84, (S)-2-{[1-(1-Ethyl-propyl)-2-thiazol-4-ylmethyl-1H-benzoimidazole-5-carbonyl]-amino}-4-methyl-pentanoic acid] gave an EC50 of 2950 nM. Compound `CCC(CC)n1c(Cc2cscn2)nc2cc(C(=O)N[C@H](C(=O)O)[C@@H](C)CC)ccc21` [Example 85, (2S,3S)-2-{[1-(1-Ethyl-propyl)-2-thiazol-4-ylmethyl-1H-benzoimidazole-5-carbonyl]-amino}-3-methyl-pentanoic acid] has an EC50 of 7800 nM. Compound `CC(C)C[C@H](NC(=O)c1ccc2c(c1)nc(Cc1ccco1)n2C1CCCCC1C)C(=O)O` (stereo partly drawn) [Example 86, (S)-2-{[2-Furan-2-ylmethyl-1-(2-methyl-cyclohexyl)-1H-benzoimidazole-5-carbonyl]-amino}-4-methyl-pentanoic acid] has an EC50 of 88 nM. For `CC(C)C[C@H](NC(=O)c1ccc2c(c1)nc(Cc1cccs1)n2C1CCCCC1C(F)(F)F)C(=O)O` (stereo partly drawn) [Example 87, (S)-4-Methyl-2-{[2-thiophen-2-ylmethyl-1-(2-trifluoromethyl-cyclohexyl)-1H-benzoimidazole-5-carbonyl]-amino}-pentanoic acid], the EC50 was 882 nM. For `CCC[C@H](NC(=O)c1ccc2c(c1)nc(Cc1cccs1)n2C1CCCCC1C(F)(F)F)C(=O)O` (stereo partly drawn) [Example 88, (S)-2-{[2-Thiophen-2-ylmethyl-1-(2-trifluoromethyl-cyclohexyl)-1H-benzoimidazole-5-carbonyl]-amino}-pentanoic acid], the EC50 was 754 nM. `O=C(N[C@@H](Cc1ccccc1)C(=O)O)c1ccc2c(c1)nc(Cc1cccs1)n2C1CCCCC1C(F)(F)F` (stereo partly drawn) [Example 89, (S)-3-Phenyl-2-{[2-thiophen-2-ylmethyl-1-(2-trifluoromethyl-cyclohexyl)-1H-benzoimidazole-5-carbonyl]-amino}-propionic acid] was tested, and the EC50 was 9330 nM. In the case of `CC(C)C[C@H](NC(=O)c1ccc2c(c1)nc(Cc1cccs1)n2C1CCCC1C)C(=O)O` (stereo partly drawn) [Example 90, (S)-4-Methyl-2-{[1-(2-methyl-cyclopentyl)-2-thiophen-2-ylmethyl-1H-benzoimidazole-5-carbonyl]-amino}-pentanoic acid], the EC50 is reported as 472 nM. With `CCC[C@H](NC(=O)c1ccc2c(c1)nc(Cc1cccs1)n2[C@@H]1CCCC[C@H]1C)C(=O)O` [Example 91, (S)-2-{[1-((1R,2R)-2-Methyl-cyclohexyl)-2-thiophen-2-ylmethyl-1H-benzoimidazole-5-carbonyl]-amino}-pentanoic acid] the EC50 was 137 nM. With `CC[C@H](C)[C@H](NC(=O)c1ccc2c(c1)nc(Cc1cccs1)n2[C@@H]1CCCC[C@H]1C)C(=O)O` [Example 92, (2S,3S)-3-Methyl-2-{[1-((1R,2R)-2-methyl-cyclohexyl)-2-thiophen-2-ylmethyl-1H-benzoimidazole-5-carbonyl]-amino}-pentanoic acid] the EC50 was under 41 nM. `CCC1CCCCC1n1c(Cc2cccs2)nc2cc(C(=O)N[C@@H](CC(C)C)C(=O)O)ccc21` (stereo partly drawn) [Example 93, (S)-2-{[1-(2-Ethyl-cyclohexyl)-2-thiophen-2-ylmethyl-1H-benzoimidazole-5-carbonyl]-amino}-4-methyl-pentanoic acid] was tested, and the EC50 was 291 nM. Work on `CCC[C@H](NC(=O)c1ccc2c(c1)nc(Cc1cccs1)n2C(CC)CC)C(=O)O` [Example 94, (S)-2-{[1-(1-Ethyl-propyl)-2-thiophen-2-ylmethyl-1H-benzoimidazole-5-carbonyl]-amino}-pentanoic acid] yielded an EC50 of 781 nM. Compound `CCC(CC)n1c(Cc2cccs2)nc2cc(C(=O)N[C@H](CC(=O)O)CC(C)C)ccc21` [Example 95, (S)-3-{[1-(1-Ethyl-propyl)-2-thiophen-2-ylmethyl-1H-benzoimidazole-5-carbonyl]-amino}-5-methyl-hexanoic acid] has an EC50 of 95 nM. With `CCC(CC)n1c(Cc2ccco2)nc2cc(C(=O)N[C@H](CC(=O)O)CC(C)C)ccc21` [Example 96, (S)-3-{[1-(1-Ethyl-propyl)-2-furan-2-ylmethyl-1H-benzoimidazole-5-carbonyl]-amino}-5-methyl-hexanoic acid] the EC50 was under 41 nM. Compound `CC(C)C[C@@H](CC(=O)O)NC(=O)c1ccc2c(c1)nc(Cc1cccs1)n2CC1CCCCC1` [Example 97, (S)-3-[(1-Cyclohexylmethyl-2-thiophen-2-ylmethyl-1H-benzoimidazole-5-carbonyl)-amino]-5-methyl-hexanoic acid] has an EC50 of 39000 nM. With `CCC(CC)n1c(Cc2cscn2)nc2cc(C(=O)N[C@H](CC(=O)O)CC(C)C)ccc21` [Example 98, (S)-3-{[1-(1-Ethyl-propyl)-2-thiazol-4-ylmethyl-1H-benzoimidazole-5-carbonyl]-amino}-5-methyl-hexanoic acid] the EC50 was 2190 nM. `CC(C)C[C@@H](CC(=O)O)NC(=O)c1ccc2c(c1)nc(Cc1ccco1)n2C1CCCCC1C` (stereo partly drawn) [Example 99, (S)-3-{[2-Furan-2-ylmethyl-1-(2-methyl-cyclohexyl)-1H-benzoimidazole-5-carbonyl]-amino}-5-methyl-hexanoic acid] showed an EC50 of 46 nM.
